What was measured:
MAPK14 (human) [1] = target: MAPK14 (human) (UniProt Q16539); assay: Inhibition of LPS Induced TNF-alpha Production in THP1 Cells
MAPK14 (human) [2] = target: MAPK14 (human) (UniProt Q16539); assay: Inhibition of LPS Induced IL-1Beta Production in Huamn PBMC
MAPK14 (human) [3] = target: MAPK14 (human) (UniProt Q16539); assay: Inhibition of LPS Induced TNF-alpha Production in Human PBMC

Chain of MAPK14 (human) (Q16539 whole entry, looked up): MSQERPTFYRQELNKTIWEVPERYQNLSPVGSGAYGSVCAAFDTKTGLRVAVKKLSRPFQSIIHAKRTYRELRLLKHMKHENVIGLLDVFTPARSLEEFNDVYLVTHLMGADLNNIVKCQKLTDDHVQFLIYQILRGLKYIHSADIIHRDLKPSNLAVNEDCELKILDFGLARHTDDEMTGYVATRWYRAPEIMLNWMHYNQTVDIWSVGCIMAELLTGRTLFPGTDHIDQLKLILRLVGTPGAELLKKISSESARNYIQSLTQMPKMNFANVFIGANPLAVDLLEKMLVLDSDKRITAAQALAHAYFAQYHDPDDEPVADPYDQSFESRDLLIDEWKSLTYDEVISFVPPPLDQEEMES

Row | SMILES | IC50 (MAPK14 (human) [1]) | IC50 (MAPK14 (human) [2]) | IC50 (MAPK14 (human) [3])
1 | O=c1c(-c2ccc(F)cc2)c(-c2ccnc(Nc3ccccc3)n2)n2n1CCC2 | 80 nM |  | 
2 | O=c1c(-c2ccc(F)cc2)c(-c2ccnc(NCc3ccccn3)n2)n2n1CCC2 | 263 nM |  | 
3 | C[C@H](Nc1nccc(-c2c(-c3ccc(F)cc3)c(=O)n3n2CCCC3)n1)C(C)(C)O | 260 nM |  | 
4 | C[C@H](Nc1nccc(-c2c(-c3ccc(F)cc3)c(=O)n3n2CCC3)n1)C1CCCCC1 | 38 nM |  | 
5 | CC(C)(C)Nc1nccc(-c2c(-c3ccc(F)cc3)c(=O)n3n2CCC3)n1 | 24 nM |  | 
6 | C=CCNc1nccc(-c2c(-c3ccc(F)cc3)c(=O)n3n2CCC3)n1 | 30 nM |  | 
7 | COC[C@H](C)Nc1nccc(-c2c(-c3ccc(F)cc3)c(=O)n3n2CCCC3)n1 | 543 nM |  | 
8 | CC[C@H](C)Nc1nccc(-c2c(-c3ccc(F)cc3)c(=O)n3n2CCC3)n1 | 2 nM |  | 
9 | COCCCNc1nccc(-c2c(-c3ccc(F)cc3)c(=O)n3n2CCC3)n1 | 301 nM |  | 
10 | Cc1ccc([C@H](C)Nc2nccc(-c3c(-c4ccc(F)cc4)c(=O)n4n3CCC4)n2)cc1 | 37 nM |  | 
11 | C[C@H](Nc1nccc(-c2c(-c3ccc(F)cc3)c(=O)n3n2CCCC3)n1)c1ccccc1 | 29 nM |  | 
12 | O=c1c(-c2ccc(F)cc2)c(-c2ccnc(Nc3ccccn3)n2)n2n1CCC2 | 600 nM |  | 
13 | C[C@H](Nc1nccc(-c2c(-c3ccc(F)cc3)c(=O)n3n2CCC3)n1)c1ccccc1 | 3 nM | 0.8 nM | 0.4 nM
14 | O=c1c(-c2ccc(F)cc2)c(-c2ccnc(Nc3c(Cl)ncnc3Cl)n2)n2n1CCC2 | 476 nM |  | 
15 | CC[C@H](C)Nc1nccc(-c2c(-c3ccc(F)cc3)c(=O)n3n2CCCC3)n1 | 106 nM |  | 
16 | C[C@H](Nc1nccc(-c2c(-c3ccc(F)cc3)c(=O)n3n2CCC3)n1)C(C)(C)O |  | 42 nM | 8 nM
17 | O=c1c(-c2ccc(F)cc2)c(-c2ccnc(NCc3ccccc3)n2)n2n1CCC2 | 74 nM |  | 
18 | C[C@@H](Nc1nccc(-c2c(-c3ccc(F)cc3)c(=O)n3n2CCC3)n1)c1ccccc1 | 27 nM |  | 
19 | O=c1c(-c2ccc(F)cc2)c(-c2ccnc(NCC3CC3)n2)n2n1CCC2 | 94 nM |  | 
20 | O=c1c(-c2ccc(F)cc2)c(-c2ccnc(NCc3cccnc3)n2)n2n1CCC2 | 121 nM |  | 
21 | COC(=O)[C@H](Nc1nccc(-c2c(-c3ccc(F)cc3)c(=O)n3n2CCC3)n1)c1ccccc1 | 147 nM |  | 
22 | O=c1c(-c2ccc(F)cc2)c(-c2ccnc(NC3CC3)n2)n2n1CCC2 | 78 nM |  | 
23 | O=c1c(-c2ccc(F)cc2)c(-c2ccnc(Nc3c(F)cccc3F)n2)n2n1CCC2 | 6 nM |  | 
24 | COC[C@H](C)Nc1nccc(-c2c(-c3ccc(F)cc3)c(=O)n3n2CCC3)n1 | 50 nM | 39 nM | 16 nM
25 | O=c1c(-c2ccc(F)cc2)c(-c2ccnc(Nc3c(Cl)cccc3Cl)n2)n2n1CCC2 | 4 nM |  | 

From the Kinase Knowledgebase extract (Sharma et al. 2016)
